Test results taken from ChEMBL document CHEMBL3351732, “Potent bisimidazole-based HCV NS5A inhibitors bearing annulated tricyclic motifs” (Bioorg Med Chem Lett, 2014).

Tests used:
Hepatitis C virus [1] = test: Antiviral activity against HCV genotype 1a infected in human HuH7 cells by luciferase reporter gene assay; assay type: functional, cell-based, Hepacivirus hominis; conditions: subtype 1a, Huh-7
Hepatitis C virus [2] = test: Antiviral activity against HCV genotype 1b infected in human HuH7 cells by luciferase reporter gene assay; assay type: functional, cell-based, Hepacivirus hominis; conditions: Huh-7
Hepatitis C virus [3] = test: Antiviral activity against HCV genotype 3a infected in human HuH7 cells by luciferase reporter gene assay; assay type: functional, cell-based, Hepacivirus hominis; conditions: Huh-7
[4] = (§1) Clearance in Sprague-Dawley rat at 1 mg/kg, iv; assay type: ADME, organism-based; set-up: dose 1 mg/kg, route intravenous; conditions: Sprague-Dawley, in vivo
[5] = Volume of distribution at steady state in Sprague-Dawley rat at 1 mg/kg, iv; assay type: ADME, organism-based; set-up: dose 1 mg/kg, route intravenous; conditions: in vivo, read-out: Vdss
[6] = Half life in Sprague-Dawley rat at 1 mg/kg, iv; assay type: ADME, organism-based; set-up: dose 1 mg/kg, route intravenous; conditions: in vivo
[7] = (§2) AUC(last) in Sprague-Dawley rat at 1 mg/kg, iv; assay type: ADME, organism-based, Plasma; set-up: time 0 - last, dose 1 mg/kg, route intravenous; conditions: Sprague-Dawley, plasma
[8] = Tmax in Sprague-Dawley rat at 5 mg/kg, po; assay type: ADME, organism-based; set-up: dose 5 mg/kg, route oral; conditions: in vivo
[9] = Cmax in Sprague-Dawley rat at 5 mg/kg, po; assay type: ADME, organism-based; set-up: dose 5 mg/kg, route oral; conditions: in vivo
[10] = AUC(last) in Sprague-Dawley rat at 5 mg/kg, po; assay type: ADME, organism-based; set-up: dose 5 mg/kg, route oral, time 0 - last; conditions: plasma
[11] = Oral bioavailability in Sprague-Dawley rat at 5 mg/kg; assay type: ADME, organism-based; conditions: in vivo
[12] = Drug level in Sprague-Dawley rat liver at 5 mg/kg, po measured 4 hrs post dose; assay type: ADME, organism-based; set-up: dose 5 mg/kg, route oral; conditions: read-out: Drug uptake
[13] = Plasma concentration in Sprague-Dawley rat at 5 mg/kg, po measured 4 hrs post dose; assay type: ADME, organism-based; set-up: dose 5 mg/kg, route oral
Rattus norvegicus [14] = test: as §1; assay type: ADME, organism-based; set-up: dose 1 mg/kg, route intravenous; conditions: in vivo
Rattus norvegicus [15] = test: as §2; assay type: ADME, organism-based, Plasma; set-up: time 0 - last, dose 1 mg/kg, route intravenous; conditions: in vivo
Hepatitis C virus [16] = test: Antiviral activity against HCV genotype 4a infected in human HuH7 cells by luciferase reporter gene assay; assay type: functional, cell-based, Hepacivirus hominis; conditions: Huh-7
Hepatitis C virus [17] = test: Antiviral activity against HCV genotype 5a infected in human HuH7 cells by luciferase reporter gene assay; assay type: functional, cell-based, Hepacivirus hominis; conditions: Huh-7
Hepatitis C virus [18] = test: Antiviral activity against HCV genotype 6a infected in human HuH7 cells by luciferase reporter gene assay; assay type: functional, cell-based, Hepacivirus hominis; conditions: Huh-7

Row | SMILES | EC50 (Hepatitis C virus [1]) | EC50 (Hepatitis C virus [2]) | other results
1 | COC(=O)N[C@H](C(=O)N1CCC[C@H]1c1ncc(-c2ccc3c(c2)Cc2cc(-c4cnc([C@@H]5CCCN5C(=O)[C@@H](NC(=O)OC)C(C)C)[nH]4)ccc2-3)[nH]1)C(C)C | 0.25 nM | 0.042 nM | EC50 (Hepatitis C virus [3]): 3.8 nM
2 | COC(=O)N[C@H](C(=O)N1CCC[C@H]1c1ncc(-c2ccc3c(c2)C(=O)c2cc(-c4cnc([C@@H]5CCCN5C(=O)[C@@H](NC(=O)OC)C(C)C)[nH]4)ccc2-3)[nH]1)C(C)C | 0.45 nM | 0.045 nM | 
3 | COC(=O)N[C@H](C(=O)N1CCC[C@H]1c1ncc(-c2ccc3c(c2)C(C)(C)c2cc(-c4cnc([C@@H]5CCCN5C(=O)[C@@H](NC(=O)OC)C(C)C)[nH]4)ccc2-3)[nH]1)C(C)C | 1.14 nM | 0.037 nM | 
4 | COC(=O)N[C@H](C(=O)N1CCC[C@H]1c1ncc(-c2ccc3c(c2)Oc2ccc(-c4cnc([C@@H]5CCCN5C(=O)[C@@H](NC(=O)OC)C(C)C)[nH]4)cc2C(=O)N3)[nH]1)C(C)C | > 100 nM | > 3.7 nM | 
5 | COC(=O)N[C@H](C(=O)N1CCC[C@H]1c1ncc(-c2ccc3c(c2)CCc2ccc(-c4cnc([C@@H]5CCCN5C(=O)[C@@H](NC(=O)OC)C(C)C)[nH]4)cc2O3)[nH]1)C(C)C | 7.4 nM | 0.055 nM | 
6 | COC(=O)N[C@H](C(=O)N1CCC[C@H]1c1ncc(-c2ccc3c(c2)CCc2cc(-c4cnc([C@@H]5CCCN5C(=O)[C@@H](NC(=O)OC)C(C)C)[nH]4)ccc2O3)[nH]1)C(C)C | 4.8 nM | 0.069 nM | 
7 | COC(=O)N[C@H](C(=O)N1CCC[C@H]1c1ncc(-c2ccc3c(c2)Cc2ccc(-c4cnc([C@@H]5CCCN5C(=O)[C@@H](NC(=O)OC)C(C)C)[nH]4)cc2O3)[nH]1)C(C)C | 0.098 nM | 0.013 nM | clearance [4]: 15.8 mL/min/kg; Vd [5]: 1.32 L/kg; half-life [6]: 79.8 min; AUC(0-t) [7]: 1060 ng·h/mL; Tmax [8]: 3.33 h; Cmax [9]: 380 ng/mL; AUC(0-t) [10]: 2090 ng·h/mL; bioavailability [11]: 41.1%; concentration at 4 h [12]: 462 ng/mL; concentration at 4 h [13]: 371 ng/mL
8 | COC(=O)N[C@H](C(=O)N1CCC[C@H]1c1ncc(-c2ccc3c(c2)Cc2cc(-c4cnc([C@@H]5CCCN5C(=O)[C@@H](NC(=O)OC)C(C)C)[nH]4)ccc2O3)[nH]1)C(C)C | > 100 nM | > 3.7 nM | 
9 | COC(=O)N[C@H](C(=O)N1CCC[C@H]1c1ncc(-c2ccc3c(c2)oc2ccc(-c4cnc([C@@H]5CCCN5C(=O)[C@@H](NC(=O)OC)C(C)C)[nH]4)cc23)[nH]1)C(C)C | 1.8 nM | 0.033 nM | 
10 | COC(=O)N[C@H](C(=O)N1CCC[C@H]1c1ncc(-c2ccc3c(c2)oc2cc(-c4cnc([C@@H]5CCCN5C(=O)[C@@H](NC(=O)OC)C(C)C)[nH]4)ccc23)[nH]1)C(C)C | 0.4 nM | 0.041 nM | EC50 (Hepatitis C virus [3]): 1.3 nM
11 | COC(=O)N[C@H](C(=O)N1CCC[C@H]1c1ncc(-c2ccc3oc4ccc(-c5cnc([C@@H]6CCCN6C(=O)[C@@H](NC(=O)OC)C(C)C)[nH]5)cc4c3c2)[nH]1)C(C)C | 9 nM | 0.17 nM | 
12 | COC(=O)N[C@H](C(=O)N1CCC[C@H]1c1ncc(-c2ccc3c(c2)-c2ccc(-c4cnc([C@@H]5CCCN5C(=O)[C@@H](NC(=O)OC)C(C)C)[nH]4)cc2-3)[nH]1)C(C)C | 3 nM | 0.55 nM | 
13 | COC(=O)N[C@H](C(=O)N1CCC[C@H]1c1ncc(-c2ccc3c(c2)S(=O)(=O)c2cc(-c4cnc([C@@H]5CCCN5C(=O)[C@@H](NC(=O)OC)C(C)C)[nH]4)ccc2-3)[nH]1)C(C)C | 2 nM | 0.13 nM | 
14 | COC(=O)N[C@H](C(=O)N1CCC[C@H]1c1ncc(-c2ccc3c(c2)[nH]c2cc(-c4cnc([C@@H]5CCCN5C(=O)[C@@H](NC(=O)OC)C(C)C)[nH]4)ccc23)[nH]1)C(C)C | 16.5 nM | 0.18 nM | 
15 | COC(=O)N[C@H](C(=O)N1CCC[C@H]1c1ncc(-c2ccc3c4ccc(-c5cnc([C@@H]6CCCN6C(=O)[C@@H](NC(=O)OC)C(C)C)[nH]5)cc4n(C)c3c2)[nH]1)C(C)C | 7.7 nM | 0.17 nM | 
16 | COC(=O)N[C@H](C(=O)N1CCC[C@H]1c1ncc(-c2ccc3c(c2)Oc2ccc(-c4cnc([C@@H]5CCCN5C(=O)[C@@H](NC(=O)OC)C(C)C)[nH]4)cc2O3)[nH]1)C(C)C | 0.044 nM | 0.023 nM | EC50 (Hepatitis C virus [3]): 0.06 nM; clearance [4]: 11.2 mL/min/kg; Vd [5]: 1.18 L/kg; half-life [6]: 152 min; AUC(0-t) [7]: 2570 ng·h/mL; Tmax [8]: 1.33 h; Cmax [9]: 339 ng/mL; AUC(0-t) [10]: 1470 ng·h/mL; bioavailability [11]: 20.1%; concentration at 4 h [12]: 973 ng/mL; concentration at 4 h [13]: 199 ng/mL
17 | COC(=O)N[C@H](C(=O)N1CCC[C@H]1c1ncc(-c2ccc3c(=O)c4cc(-c5cnc([C@@H]6CCCN6C(=O)[C@@H](NC(=O)OC)C(C)C)[nH]5)ccc4oc3c2)[nH]1)C(C)C | 0.173 nM | 0.028 nM | EC50 (Hepatitis C virus [3]): 1.4 nM; CL (Rattus norvegicus [14]): 3.3 L/h/kg; Vd [5]: 3.57 L/kg; half-life [6]: 55.2 min; AUClast (Rattus norvegicus [15]): 626 ng·h/mL; Tmax [8]: 0.5 h; Cmax [9]: 96.5 ng/mL; AUC(0-t) [10]: 197 ng·h/mL; bioavailability [11]: 6.7%; concentration at 4 h [12]: 25 ng/mL; concentration at 4 h [13]: 14 ng/mL
18 | COC(=O)N[C@H](C(=O)N1CCC[C@H]1c1ncc(-c2ccc3oc4cc(-c5cnc([C@@H]6CCCN6C(=O)[C@@H](NC(=O)OC)C(C)C)[nH]5)c(F)cc4c(=O)c3c2)[nH]1)C(C)C | 0.6 nM | 0.03 nM | 
19 | COC(=O)N[C@H](C(=O)N1CCC[C@H]1c1ncc(-c2ccc3oc4cc(-c5cnc([C@@H]6CCCN6C(=O)[C@@H](NC(=O)OC)C(C)C)[nH]5)c(Cl)cc4c(=O)c3c2)[nH]1)C(C)C | 2.5 nM | 0.029 nM | 
20 | COC(=O)N[C@H](C(=O)N1CCC[C@H]1c1ncc(-c2ccc3oc4cc(-c5cnc([C@@H]6CCCN6C(=O)[C@@H](NC(=O)OC)C(C)C)[nH]5)c(C)cc4c(=O)c3c2)[nH]1)C(C)C | 3.4 nM | 0.055 nM | 
21 | COC(=O)N[C@H](C(=O)N1CCC[C@H]1c1ncc(-c2ccc3c(c2)Oc2ccc(-c4cnc([C@@H]5CCCN5C(=O)[C@@H](NC(=O)OC)C(C)C)[nH]4)cc2C32CC2)[nH]1)C(C)C | 0.065 nM | 0.02 nM | 
22 | COC(=O)N[C@H](C(=O)N1CCC[C@H]1c1ncc(-c2ccc3c(c2)c(=O)c2ccc(-c4cnc([C@@H]5CCCN5C(=O)[C@@H](NC(=O)OC)C(C)C)[nH]4)cc2n3C)[nH]1)C(C)C | 11.1 nM | 0.028 nM | 
23 | COC(=O)N[C@H](C(=O)N1CCC[C@H]1c1ncc(-c2ccc3nc4cc(-c5cnc([C@@H]6CCCN6C(=O)[C@@H](NC(=O)OC)C(C)C)[nH]5)ccc4nc3c2)[nH]1)C(C)C | 0.088 nM | 0.037 nM | 
24 | COC(=O)N[C@H](C(=O)N1CCC[C@H]1c1ncc(-c2ccc(-c3ccc(-c4cnc([C@@H]5CCCN5C(=O)[C@@H](NC(=O)OC)C(C)C)[nH]4)cc3)cc2)[nH]1)C(C)C [DACLATASVIR] | 0.14 nM | 0.073 nM | EC50 (Hepatitis C virus [3]): 0.67 nM; EC50 (Hepatitis C virus [16]): 0.041 nM; EC50 (Hepatitis C virus [17]): 0.051 nM; EC50 (Hepatitis C virus [18]): 0.45 nM
